Assay results reported in PubChem BioAssay AID256 (DTP/NCI, 2004).
Values joined by “and” are separate entries in the source; they are usually repeats but may differ in a detail not shown here. Equal values may be shown once. Toxic doses and inconclusive results are not listed. How the source made its calls: active means survival T/C of 150% or more; inactive means T/C below 125% in these data.

Test system: CD2F1 mice, L1210 leukemia ip, survival T/C
Test: NCI In Vivo Anticancer Drug Screen. Data for tumor model L1210 Leukemia (intraperitoneal) in CD2F1 (CDF1) mice
Settings: higher = longer survival
How it was run: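 Mice carrying a transplanted tumor received test compound or vehicle alone. The value is the measurement in the treated group divided by that in the vehicle-treated control group.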

[1] = endpoint: mean survival time, dose: 100.0 mg/kg/injection, schedule: Q01DX009 (ip), vehicle: saline with Tween-80
[2] = endpoint: mean survival time, dose: 100.0 mg/kg/injection, schedule: Q04DX003 (ip), vehicle: saline with Tween-80
[3] = endpoint: mean survival time, dose: 200.0 mg/kg/injection, schedule: Q01DX009 (ip), vehicle: saline with Tween-80
[4] = endpoint: mean survival time, dose: 200.0 mg/kg/injection, schedule: Q04DX003 (ip), vehicle: saline with Tween-80
[5] = endpoint: mean survival time, dose: 400.0 mg/kg/injection, schedule: Q01DX009 (ip), vehicle: saline with Tween-80
[6] = endpoint: mean survival time, dose: 400.0 mg/kg/injection, schedule: Q04DX003 (ip), vehicle: saline with Tween-80
[7] = endpoint: mean survival time, dose: 100.0 mg/kg/injection, schedule: Q01DX001 (ip), vehicle: saline with Tween-80
[8] = endpoint: mean survival time, dose: 200.0 mg/kg/injection, schedule: Q01DX001 (ip), vehicle: saline with Tween-80
[9] = endpoint: mean survival time, dose: 400.0 mg/kg/injection, schedule: Q01DX001 (ip), vehicle: saline with Tween-80
[10] = endpoint: mean survival time, dose: 100.0 mg/kg/injection, schedule: Q04DX002 (ip), vehicle: saline with Tween-80
[11] = endpoint: mean survival time, dose: 200.0 mg/kg/injection, schedule: Q04DX002 (ip), vehicle: saline with Tween-80

Measured: T/C

CC(C)NCC(O)c1ccc(O)c(O)c1 (stereo not drawn)
inactive: endpoint: mean survival time, dose: 4.0 mg/kg/injection, schedule: Q01DX009 (ip), vehicle: saline 101 % of control | endpoint: mean survival time, dose: 8.0 mg/kg/injection, schedule: Q01DX009 (ip), vehicle: saline 107 % of control and 109 % of control | endpoint: mean survival time, dose: 16.0 mg/kg/injection, schedule: Q01DX001 (ip), vehicle: saline 96 % of control | endpoint: mean survival time, dose: 16.0 mg/kg/injection, schedule: Q01DX009 (ip), vehicle: saline 107 % of control and 113 % of control | endpoint: mean survival time, dose: 32.0 mg/kg/injection, schedule: Q01DX001 (ip), vehicle: saline 100 % of control | endpoint: mean survival time, dose: 32.0 mg/kg/injection, schedule: Q01DX009 (ip), vehicle: saline 104 % of control and 107 % of control | endpoint: mean survival time, dose: 50.0 mg/kg/injection, schedule: Q01DX001 (ip), vehicle: saline 95 % of control | endpoint: mean survival time, dose: 64.0 mg/kg/injection, schedule: Q01DX001 (ip), vehicle: saline 98 % of control and 102 % of control | endpoint: mean survival time, dose: 64.0 mg/kg/injection, schedule: Q01DX009 (ip), vehicle: saline 121 % of control | endpoint: mean survival time, dose: 100.0 mg/kg/injection, schedule: Q01DX001 (ip), vehicle: saline 104 % of control | endpoint: mean survival time, dose: 100.0 mg/kg/injection, schedule: Q01DX009 (ip), vehicle: saline 108 % of control | endpoint: mean survival time, dose: 128.0 mg/kg/injection, schedule: Q01DX001 (ip), vehicle: saline 100 % of control and 105 % of control | endpoint: mean survival time, dose: 178.0 mg/kg/injection, schedule: Q01DX009 (ip), vehicle: saline 112 % of control | endpoint: mean survival time, dose: 200.0 mg/kg/injection, schedule: Q01DX001 (ip), vehicle: saline 104 % of control | endpoint: mean survival time, dose: 200.0 mg/kg/injection, schedule: Q01DX009 (ip), vehicle: saline 111 % of control | endpoint: mean survival time, dose: 256.0 mg/kg/injection, schedule: Q01DX001 (ip), vehicle: other 102 % of control | endpoint: mean survival time, dose: 256.0 mg/kg/injection, schedule: Q01DX001 (ip), vehicle: saline 105 % of control | endpoint: mean survival time, dose: 266.0 mg/kg/injection, schedule: Q01DX009 (ip), vehicle: saline 120 % of control | endpoint: mean survival time, dose: 400.0 mg/kg/injection, schedule: Q01DX001 (ip), vehicle: saline 110 % of control | endpoint: mean survival time, dose: 400.0 mg/kg/injection, schedule: Q01DX009 (ip), vehicle: saline 122 % of control | endpoint: mean survival time, dose: 600.0 mg/kg/injection, schedule: Q01DX009 (ip), vehicle: saline 112 % of control

CC(C)(C)C1CCC(S(=O)c2ccc([N+](=O)[O-])cc2[N+](=O)[O-])CC1 (stereo not drawn)
inactive: [1] 90 % of control | [2] 94 % of control | [3] 91 % of control | [4] 98 % of control | [5] 86 % of control | [6] 88 % of control

Cc1ccc(S(=O)(=O)OC(c2ccc(Cl)cc2)C(F)(F)F)cc1 (stereo not drawn)
inactive: [7] 101 % of control | [1] 93 % of control | [8] 95 % of control | [3] 86 % of control | [9] 101 % of control | [5] 87 % of control

CC1(C2CCN(Cc3ccccc3)CC2)OCCO1
inactive: endpoint: mean survival time, dose: 75.0 mg/kg/injection, schedule: Q01DX001 (ip), vehicle: saline 101 % of control | endpoint: mean survival time, dose: 150.0 mg/kg/injection, schedule: Q01DX001 (ip), vehicle: saline 97 % of control

Cc1ccc(S(=O)(=O)OCC2CC3CCC2C3)cc1 (stereo not drawn)
inactive: endpoint: mean survival time, dose: 100.0 mg/kg/injection, schedule: Q01DX009 (ip), vehicle: other 102 % of control | endpoint: mean survival time, dose: 200.0 mg/kg/injection, schedule: Q01DX009 (ip), vehicle: other 102 % of control | endpoint: mean survival time, dose: 400.0 mg/kg/injection, schedule: Q01DX009 (ip), vehicle: other 93 % of control

CC(=O)N(C)N=Nc1ccc(C(F)(F)F)cc1
inactive: endpoint: mean survival time, dose: 50.0 mg/kg/injection, schedule: Q04DX003 (ip), vehicle: Klucel (hydroxypropylcellulose) (HPC) 97 % of control | endpoint: mean survival time, dose: 100.0 mg/kg/injection, schedule: Q04DX003 (ip), vehicle: Klucel (hydroxypropylcellulose) (HPC) 102 % of control | endpoint: mean survival time, dose: 200.0 mg/kg/injection, schedule: Q04DX003 (ip), vehicle: Klucel (hydroxypropylcellulose) (HPC) 96 % of control | endpoint: mean survival time, dose: 400.0 mg/kg/injection, schedule: Q04DX003 (ip), vehicle: Klucel (hydroxypropylcellulose) (HPC) 105 % of control

C=C(Br)CNC(=O)C(=O)OCC
inactive: [2] 105 % of control

CNc1nc(-c2ccncc2)nc(N(C)C)n1
inactive: [10] 96 % of control | [11] 88 % of control

Cc1ccc(N=Nc2c(N)nc(N)[nH]c2=O)cc1C
inactive: [1] 97 % of control | [3] 97 % of control | [5] 99 % of control

CC(C)(Br)C(=O)c1ccco1
inactive: endpoint: mean survival time, dose: 100.0 mg/kg/injection, schedule: Q04DX003 (ip), vehicle: saline sonified 101 % of control | endpoint: mean survival time, dose: 200.0 mg/kg/injection, schedule: Q04DX003 (ip), vehicle: saline sonified 102 % of control | endpoint: mean survival time, dose: 400.0 mg/kg/injection, schedule: Q04DX003 (ip), vehicle: saline sonified 95 % of control

c1ccc2c(NCCCCCCCCNc3c4ccccc4nc4ccccc34)c3ccccc3nc2c1
inactive: endpoint: mean survival time, dose: 1.25 mg/kg/injection, schedule: Q01DX009 (ip), vehicle: Klucel (hydroxypropylcellulose) (HPC) 120 % of control | endpoint: mean survival time, dose: 2.5 mg/kg/injection, schedule: Q01DX009 (ip), vehicle: Klucel (hydroxypropylcellulose) (HPC) 114 % of control and 100 % of control | endpoint: mean survival time, dose: 5.0 mg/kg/injection, schedule: Q01DX009 (ip), vehicle: Klucel (hydroxypropylcellulose) (HPC) 119 % of control and 120 % of control and 111 % of control | endpoint: mean survival time, dose: 10.0 mg/kg/injection, schedule: Q01DX009 (ip), vehicle: Klucel (hydroxypropylcellulose) (HPC) 109 % of control and 111 % of control | endpoint: mean survival time, dose: 20.0 mg/kg/injection, schedule: Q01DX009 (ip), vehicle: Klucel (hydroxypropylcellulose) (HPC) 117 % of control

CNc1ncn(-c2c(C)cccc2C)c(=O)n1
inactive: endpoint: median survival time, dose: 3.12 mg/kg/injection, schedule: Q01DX005 (ip), vehicle: Klucel (hydroxypropylcellulose) (HPC) 101 % of control | endpoint: median survival time, dose: 6.25 mg/kg/injection, schedule: Q01DX005 (ip), vehicle: Klucel (hydroxypropylcellulose) (HPC) 97 % of control | endpoint: median survival time, dose: 12.5 mg/kg/injection, schedule: Q01DX005 (ip), vehicle: Klucel (hydroxypropylcellulose) (HPC) 102 % of control | endpoint: median survival time, dose: 25.0 mg/kg/injection, schedule: Q01DX005 (ip), vehicle: Klucel (hydroxypropylcellulose) (HPC) 100 % of control | endpoint: median survival time, dose: 50.0 mg/kg/injection, schedule: Q01DX005 (ip), vehicle: Klucel (hydroxypropylcellulose) (HPC) 108 % of control | endpoint: median survival time, dose: 50.0 mg/kg/injection, schedule: Q01DX005 (ip), vehicle: saline with Tween-80 119 % of control and 98 % of control and 102 % of control | endpoint: median survival time, dose: 100.0 mg/kg/injection, schedule: Q01DX005 (ip), vehicle: saline with Tween-80 123 % of control and 98 % of control and 110 % of control | endpoint: median survival time, dose: 200.0 mg/kg/injection, schedule: Q01DX005 (ip), vehicle: saline with Tween-80 122 % of control and 107 % of control

O=C(O)C1=CCCC(O)CC1 (stereo not drawn)
inactive: [7] 95 % of control | [10] 100 % of control | [8] 94 % of control | [11] 96 % of control | [9] 95 % of control | endpoint: mean survival time, dose: 400.0 mg/kg/injection, schedule: Q04DX002 (ip), vehicle: saline with Tween-80 103 % of control

C(=C(\C[P+](c1ccccc1)(c1ccccc1)c1ccccc1)c1ccccc1)/c1ccccc1
inactive: endpoint: mean survival time, dose: 1.25 mg/kg/injection, schedule: Q01DX009 (ip), vehicle: saline with Tween-80 104 % of control | endpoint: mean survival time, dose: 2.5 mg/kg/injection, schedule: Q01DX009 (ip), vehicle: saline with Tween-80 102 % of control | endpoint: mean survival time, dose: 5.0 mg/kg/injection, schedule: Q01DX009 (ip), vehicle: saline with Tween-80 97 % of control

CON(C)C(=O)N1c2ccccc2Sc2ccccc21
inactive: [2] 87 % of control | [4] 87 % of control

COC(CO)(OC)c1ccccc1
inactive: [2] 102 % of control | [4] 106 % of control | [6] 93 % of control
